Here are results for four compounds from ChEMBL document CHEMBL1201862, “PubChem BioAssay data set” (2004).

Molecules are shown by their SMILES. Calls of active or inactive are those of the source.

For one assay, the target named is Activated CDC42 kinase 1 (Homo sapiens, UniProt Q07912). Description: Navigating the Kinome. Panel member name: ACK1. It is filed as functional.
Assay [1] deals with Dual specificity mitogen-activated protein kinase kinase 2 (Homo sapiens, UniProt P36507). Description: Navigating the Kinome. Panel member name: MAP2K2. It is filed as functional.
The target of assay [2] is Vascular endothelial growth factor receptor 1 (Homo sapiens, UniProt P17948). It is filed as functional.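 Note: measured within a kinome-wide profiling panel, FLT1 as the panel member.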
Assay [3] concerns the target High affinity nerve growth factor receptor (Homo sapiens, UniProt P04629). Type of assay: functional.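 Note: NTRK1 tested as one member of a kinome-wide profiling panel.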
Assay [4] concerns the target Cyclin-dependent kinase 5 (Homo sapiens, UniProt Q00535). It is filed as functional.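 Note: CDK5 measured as one member of a kinase profiling panel.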
Assay [5] deals with Tyrosine-protein kinase JAK2 (Homo sapiens, UniProt O60674). It is filed as functional.
Assay [6] concerns the target Tyrosine-protein kinase JAK3 (Homo sapiens, UniProt P52333). Type of assay: functional.
In assay [7] the target is Cyclin-dependent kinase 8 (Homo sapiens, UniProt P49336). Kind of assay: Navigating the Kinome. Panel member name: CDK8. Type of assay: functional.
Assay [8] deals with Inhibitor of nuclear factor kappa-B kinase subunit epsilon (Homo sapiens, UniProt Q14164). Kind of assay: Navigating the Kinome. Panel member name: IKBKE. It is filed as functional.
The target of assay [9] is Tyrosine-protein kinase Fyn (Homo sapiens, UniProt P06241). Type of assay: functional.
Assay [10] addresses Serine/threonine-protein kinase D3 (Homo sapiens, UniProt O94806). It is filed as functional.
For assay [11], the target named is Macrophage-stimulating protein receptor (Homo sapiens, UniProt Q04912). Description: Navigating the Kinome. Panel member name: MST1R. Type of assay: functional.
Assay [12] deals with T1, Serine/threonine-protein kinase Nek2 (Homo sapiens, UniProt P51955).
T1 sequence (P51955 whole entry): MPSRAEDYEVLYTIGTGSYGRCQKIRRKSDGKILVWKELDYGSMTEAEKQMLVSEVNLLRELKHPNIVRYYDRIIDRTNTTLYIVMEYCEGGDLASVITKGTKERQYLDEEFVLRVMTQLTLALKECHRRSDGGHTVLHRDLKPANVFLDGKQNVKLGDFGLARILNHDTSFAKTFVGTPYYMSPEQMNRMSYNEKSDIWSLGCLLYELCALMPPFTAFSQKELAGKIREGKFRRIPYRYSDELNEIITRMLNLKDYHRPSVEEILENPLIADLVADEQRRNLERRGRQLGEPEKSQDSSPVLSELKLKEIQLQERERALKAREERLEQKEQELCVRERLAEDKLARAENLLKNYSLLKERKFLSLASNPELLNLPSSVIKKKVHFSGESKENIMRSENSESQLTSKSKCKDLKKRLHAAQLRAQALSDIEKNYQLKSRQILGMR
Type of assay: functional.

Assay [13] deals with Hepatocyte growth factor receptor (Homo sapiens, UniProt P08581). It is filed as functional.
Assay [14] has as its target Serine/threonine-protein kinase TBK1 (Homo sapiens, UniProt Q9UHD2). Kind of assay: Navigating the Kinome. Panel member name: TBK1. Type of assay: functional.
Assay [15] has as its target Receptor-type tyrosine-protein kinase FLT3 (Homo sapiens, UniProt P36888). Type of assay: functional.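 Note: FLT3 was tested as one member of a kinome-wide kinase panel.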
Assay [16] concerns the target Leukocyte tyrosine kinase receptor (Homo sapiens, UniProt P29376). Kind of assay: Navigating the Kinome. Panel member name: LTK. Type of assay: functional.
Assay [17] concerns the target Serine/threonine-protein kinase pim-1 (Homo sapiens, UniProt P11309). Type of assay: functional.
In assay [18] the target is Vascular endothelial growth factor receptor 2 (Homo sapiens, UniProt P35968). It is filed as functional.
The target in assay [19] is Mitogen-activated protein kinase kinase kinase kinase 2 (Homo sapiens, UniProt Q12851). Type of assay: functional.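 Note: measured as one member of a kinome-wide kinase panel, with MAP4K2 as the panel entry.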
The target in assay [20] is BDNF/NT-3 growth factors receptor (Homo sapiens, UniProt Q16620). Type of assay: functional.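 Note: NTRK2 measured as one member of a broad kinome-wide kinase profiling panel.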
Assay [21] deals with Platelet-derived growth factor receptor alpha (Homo sapiens, UniProt P16234). Kind of assay: Navigating the Kinome. Panel member name: PDGFRA. It is filed as functional.
Assay [22] has as its target Leucine-rich repeat serine/threonine-protein kinase 2 (Homo sapiens, UniProt Q5S007). Type of assay: functional.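 Note: value from a broad kinome-wide panel profiling study in which LRRK2 was one of the kinases tested.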
Assay [23] addresses Glycogen synthase kinase-3 beta (Homo sapiens, UniProt P49841). Type of assay: functional.
The target in assay [24] is Fibroblast growth factor receptor 1 (Homo sapiens, UniProt P11362). Type of assay: functional.
The target of assay [25] is cAMP-dependent protein kinase catalytic subunit alpha (Homo sapiens, UniProt P17612). It is filed as functional.
Assay [26] concerns the target Rho-associated protein kinase 1 (Homo sapiens, UniProt Q13464). Type of assay: functional.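 Note: measured within a broad kinome-wide panel profiling many kinases.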
Assay [27] addresses ALK tyrosine kinase receptor (Homo sapiens, UniProt Q9UM73). It is filed as functional.
Assay [28] has as its target Insulin-like growth factor 1 receptor (Homo sapiens, UniProt P08069). Description: Navigating the Kinome. Panel member name: IGF1R. It is filed as functional.
Assay [29] has as its target Macrophage colony-stimulating factor 1 receptor (Homo sapiens, UniProt P07333). Type of assay: functional.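 Note: value comes from the Navigating the Kinome screening panel, CSF1R member.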
The nature of assay [30]: HepG2 cell cytotoxicity, dose response, cytotoxicity control for Shn3 inhibitor project, CellTiter-Glo, cherry-picked (AID 624134). Type of assay: functional, cell-based.
The target in assay [31] is Heat shock protein HSP 90-alpha (Homo sapiens, UniProt P07900). It is filed as functional, organism-based.
Assay [32] is described as follows: C. albicans growth with fluconazole, confirmation, fluorescence, retest (AID 2467). It is filed as functional, cell-based.
Another assay has as its system INS1. Kind of assay: beta cell apoptosis inhibitors, cytokine rescue, dose response, luminescence, retest (AID 449756).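 Note: cell death triggered by IL-1 beta plus TNF-alpha plus IFN-gamma mixture; protective hits raise ATP signal compared with cytokine alone wells.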 Type of assay: functional, cell-based. As to conditions: Rattus norvegicus.
Assay [33] in a line: Shn3 3'UTR reporter inhibitors, dose response, cell-based, Clone20 osteoblasts, firefly luciferase, cherry-picked (AID 624132).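 Note: firefly luciferase luminescence from reporter carrying the Shn3 3'UTR in osteoblasts.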 Type of assay: functional.
The target of assay [34] is ATP-dependent molecular chaperone HSP82 (Candida albicans (strain WO-1) (Yeast), UniProt C4YTQ8). Description: loss of DOC-induced GRE-beta-galactosidase reporter signal, dose response, Hsp90 inhibitor project, S. cerevisiae, luminescence (AID 2400).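 Note: beta-galactosidase luminescence from glucocorticoid response element reporter as proxy for Hsp90 function; inhibitor potency where signal loss means Hsp90 inhibition.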 Type of assay: functional, cell-based.
Assay [35] is described as follows: cytotoxicity toward NIH3T3 fibroblasts, dose response, counter-screen, cell-based, ATP luminescence, mouse fibroblasts (AID 2010).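 Note: cells exposed to compound for about 90 hours before reading.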 Type of assay: functional.

Chain of Leucine-rich repeat serine/threonine-protein kinase 2 (Q5S007 whole entry): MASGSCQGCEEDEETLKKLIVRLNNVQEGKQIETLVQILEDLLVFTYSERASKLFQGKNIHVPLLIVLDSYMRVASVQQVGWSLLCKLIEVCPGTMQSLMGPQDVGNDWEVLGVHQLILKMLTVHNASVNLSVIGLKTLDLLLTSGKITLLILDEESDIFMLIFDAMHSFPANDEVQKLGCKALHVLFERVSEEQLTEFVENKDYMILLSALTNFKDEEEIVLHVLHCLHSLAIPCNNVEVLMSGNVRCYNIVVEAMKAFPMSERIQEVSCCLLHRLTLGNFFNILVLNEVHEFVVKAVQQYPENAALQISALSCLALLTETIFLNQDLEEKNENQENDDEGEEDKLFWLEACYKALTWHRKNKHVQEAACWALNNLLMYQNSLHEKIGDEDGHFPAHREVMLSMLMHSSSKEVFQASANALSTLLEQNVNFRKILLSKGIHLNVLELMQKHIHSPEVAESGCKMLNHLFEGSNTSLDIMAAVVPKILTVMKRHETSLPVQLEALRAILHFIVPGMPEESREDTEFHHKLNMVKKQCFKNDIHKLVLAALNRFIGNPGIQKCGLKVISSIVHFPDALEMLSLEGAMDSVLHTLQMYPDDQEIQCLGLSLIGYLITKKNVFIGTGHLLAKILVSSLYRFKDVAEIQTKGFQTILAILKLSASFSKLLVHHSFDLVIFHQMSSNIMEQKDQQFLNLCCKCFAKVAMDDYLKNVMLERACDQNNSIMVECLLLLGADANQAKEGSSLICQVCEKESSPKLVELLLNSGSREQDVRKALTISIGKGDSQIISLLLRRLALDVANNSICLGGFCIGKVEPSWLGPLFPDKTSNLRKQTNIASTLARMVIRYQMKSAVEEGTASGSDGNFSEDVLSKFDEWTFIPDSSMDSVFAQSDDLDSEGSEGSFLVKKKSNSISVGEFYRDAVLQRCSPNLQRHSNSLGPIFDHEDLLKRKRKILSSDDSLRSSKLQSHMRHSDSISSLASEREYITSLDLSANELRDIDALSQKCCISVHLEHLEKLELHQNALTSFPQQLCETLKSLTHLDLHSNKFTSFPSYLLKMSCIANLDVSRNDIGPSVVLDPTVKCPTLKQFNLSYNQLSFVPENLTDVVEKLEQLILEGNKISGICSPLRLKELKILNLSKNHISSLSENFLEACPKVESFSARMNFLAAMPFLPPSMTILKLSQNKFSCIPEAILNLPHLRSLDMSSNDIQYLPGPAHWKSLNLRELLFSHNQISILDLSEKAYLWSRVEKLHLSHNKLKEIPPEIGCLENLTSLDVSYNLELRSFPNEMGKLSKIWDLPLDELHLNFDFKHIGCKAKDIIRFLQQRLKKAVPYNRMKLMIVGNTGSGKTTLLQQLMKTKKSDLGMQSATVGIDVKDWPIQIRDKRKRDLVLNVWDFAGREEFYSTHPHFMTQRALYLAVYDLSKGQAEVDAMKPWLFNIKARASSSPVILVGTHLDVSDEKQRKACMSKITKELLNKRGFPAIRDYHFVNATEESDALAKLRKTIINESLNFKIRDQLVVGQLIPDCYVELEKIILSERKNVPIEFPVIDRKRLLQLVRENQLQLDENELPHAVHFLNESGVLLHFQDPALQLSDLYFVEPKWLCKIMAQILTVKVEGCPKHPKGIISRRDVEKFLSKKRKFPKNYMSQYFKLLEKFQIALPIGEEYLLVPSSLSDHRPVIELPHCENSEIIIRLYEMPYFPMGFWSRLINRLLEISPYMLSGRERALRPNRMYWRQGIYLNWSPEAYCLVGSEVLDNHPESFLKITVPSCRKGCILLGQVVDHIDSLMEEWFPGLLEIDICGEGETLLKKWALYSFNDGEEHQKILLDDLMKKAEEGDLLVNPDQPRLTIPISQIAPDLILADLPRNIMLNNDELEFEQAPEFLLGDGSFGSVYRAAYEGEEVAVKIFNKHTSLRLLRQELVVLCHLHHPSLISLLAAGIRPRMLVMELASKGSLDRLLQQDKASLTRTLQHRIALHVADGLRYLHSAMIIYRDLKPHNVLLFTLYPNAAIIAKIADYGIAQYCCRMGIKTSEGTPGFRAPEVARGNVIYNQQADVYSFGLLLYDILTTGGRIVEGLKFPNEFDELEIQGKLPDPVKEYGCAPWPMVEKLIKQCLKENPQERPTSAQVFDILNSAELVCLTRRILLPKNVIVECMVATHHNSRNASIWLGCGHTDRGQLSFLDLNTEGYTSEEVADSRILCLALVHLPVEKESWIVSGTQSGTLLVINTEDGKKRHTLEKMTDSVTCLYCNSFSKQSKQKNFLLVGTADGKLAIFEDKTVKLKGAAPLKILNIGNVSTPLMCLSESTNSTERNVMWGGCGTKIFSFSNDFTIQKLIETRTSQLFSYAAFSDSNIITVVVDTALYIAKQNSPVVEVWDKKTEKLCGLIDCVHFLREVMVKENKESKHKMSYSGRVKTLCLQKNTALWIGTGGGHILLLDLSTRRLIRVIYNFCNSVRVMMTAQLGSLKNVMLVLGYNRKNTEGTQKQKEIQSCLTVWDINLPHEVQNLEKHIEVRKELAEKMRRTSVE
Chain of Leukocyte tyrosine kinase receptor (P29376 whole entry): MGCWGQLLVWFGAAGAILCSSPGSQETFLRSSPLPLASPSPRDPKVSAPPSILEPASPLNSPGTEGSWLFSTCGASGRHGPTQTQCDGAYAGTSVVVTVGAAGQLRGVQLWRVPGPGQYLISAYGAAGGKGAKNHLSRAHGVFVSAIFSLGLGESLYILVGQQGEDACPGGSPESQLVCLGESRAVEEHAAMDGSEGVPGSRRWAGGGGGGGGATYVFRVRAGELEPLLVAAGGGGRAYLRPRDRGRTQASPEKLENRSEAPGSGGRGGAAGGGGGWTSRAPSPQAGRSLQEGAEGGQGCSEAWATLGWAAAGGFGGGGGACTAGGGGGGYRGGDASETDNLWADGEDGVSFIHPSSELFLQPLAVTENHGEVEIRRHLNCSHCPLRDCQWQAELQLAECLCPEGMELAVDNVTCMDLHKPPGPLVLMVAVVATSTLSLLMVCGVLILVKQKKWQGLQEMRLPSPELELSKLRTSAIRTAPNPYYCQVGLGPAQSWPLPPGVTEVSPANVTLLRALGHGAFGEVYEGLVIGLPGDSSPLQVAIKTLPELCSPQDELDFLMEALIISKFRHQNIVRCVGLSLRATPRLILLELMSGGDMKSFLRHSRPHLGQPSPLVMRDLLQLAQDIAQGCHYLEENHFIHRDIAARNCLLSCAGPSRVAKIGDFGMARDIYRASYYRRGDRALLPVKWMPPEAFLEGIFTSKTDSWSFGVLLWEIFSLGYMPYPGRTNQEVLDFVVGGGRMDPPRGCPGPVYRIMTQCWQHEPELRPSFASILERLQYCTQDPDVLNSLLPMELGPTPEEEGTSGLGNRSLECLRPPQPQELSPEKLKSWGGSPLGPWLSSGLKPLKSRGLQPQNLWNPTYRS
Chain of Mitogen-activated protein kinase kinase kinase kinase 2 (Q12851 whole entry): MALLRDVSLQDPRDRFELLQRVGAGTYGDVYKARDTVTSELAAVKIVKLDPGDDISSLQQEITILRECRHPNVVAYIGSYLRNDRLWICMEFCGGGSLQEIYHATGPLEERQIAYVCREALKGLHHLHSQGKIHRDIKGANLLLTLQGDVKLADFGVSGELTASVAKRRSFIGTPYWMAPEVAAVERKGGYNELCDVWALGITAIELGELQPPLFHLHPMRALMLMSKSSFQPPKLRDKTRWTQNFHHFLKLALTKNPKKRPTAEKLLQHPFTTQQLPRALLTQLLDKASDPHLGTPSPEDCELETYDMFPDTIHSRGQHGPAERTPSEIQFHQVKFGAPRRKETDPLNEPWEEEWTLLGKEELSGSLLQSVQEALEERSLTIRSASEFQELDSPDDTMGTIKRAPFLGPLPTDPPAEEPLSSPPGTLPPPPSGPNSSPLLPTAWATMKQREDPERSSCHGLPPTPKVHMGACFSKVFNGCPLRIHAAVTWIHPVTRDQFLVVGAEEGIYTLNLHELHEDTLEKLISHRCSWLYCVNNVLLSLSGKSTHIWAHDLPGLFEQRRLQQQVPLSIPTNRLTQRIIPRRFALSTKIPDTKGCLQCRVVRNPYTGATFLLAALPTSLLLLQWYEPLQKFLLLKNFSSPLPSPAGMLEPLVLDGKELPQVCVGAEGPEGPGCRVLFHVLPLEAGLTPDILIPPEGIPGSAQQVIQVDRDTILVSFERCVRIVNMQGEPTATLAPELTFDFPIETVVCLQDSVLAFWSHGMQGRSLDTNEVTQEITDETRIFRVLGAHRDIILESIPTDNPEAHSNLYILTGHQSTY
Chain of Tyrosine-protein kinase Fyn (P06241 whole entry): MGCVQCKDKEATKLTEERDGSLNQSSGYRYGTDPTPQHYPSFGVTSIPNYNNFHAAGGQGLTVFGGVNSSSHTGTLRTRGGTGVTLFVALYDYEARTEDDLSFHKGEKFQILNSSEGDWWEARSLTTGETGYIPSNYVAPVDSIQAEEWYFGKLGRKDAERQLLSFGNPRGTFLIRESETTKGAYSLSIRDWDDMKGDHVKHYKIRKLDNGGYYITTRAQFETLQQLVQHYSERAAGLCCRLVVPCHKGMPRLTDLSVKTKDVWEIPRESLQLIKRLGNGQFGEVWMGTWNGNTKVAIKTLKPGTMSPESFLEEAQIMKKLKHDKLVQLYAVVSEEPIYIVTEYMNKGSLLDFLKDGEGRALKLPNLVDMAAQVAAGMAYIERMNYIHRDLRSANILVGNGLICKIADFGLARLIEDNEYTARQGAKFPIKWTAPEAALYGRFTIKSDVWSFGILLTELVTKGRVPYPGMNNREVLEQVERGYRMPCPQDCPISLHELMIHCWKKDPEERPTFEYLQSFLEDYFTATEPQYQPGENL
Chain of Serine/threonine-protein kinase pim-1 (P11309 whole entry): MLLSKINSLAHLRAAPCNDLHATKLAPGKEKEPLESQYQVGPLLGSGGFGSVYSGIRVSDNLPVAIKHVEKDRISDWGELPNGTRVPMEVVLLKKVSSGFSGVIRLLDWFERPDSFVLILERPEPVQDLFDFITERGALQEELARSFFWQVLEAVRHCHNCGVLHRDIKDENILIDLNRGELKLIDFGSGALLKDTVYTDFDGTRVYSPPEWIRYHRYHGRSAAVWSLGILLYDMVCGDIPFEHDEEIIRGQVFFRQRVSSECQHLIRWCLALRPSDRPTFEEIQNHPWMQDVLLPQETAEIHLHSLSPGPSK

Regarding `O=C(Nc1cccc(C2Nc3ccc4ccccc4c3C3C=CCC32)c1)c1ccc(F)cc1` (configuration not stated), the Ki (commonly the dissociation constant of the complex between target and ligand, obtained from inhibition or displacement) at Activated CDC42 kinase 1 was > 3980 nM (inactive); in assay [1], 398 nM (active); in assay [2], > 3980 nM (inactive); in assay [3], 794 nM (active); in assay [4], > 3160 nM (inactive); in assay [5], > 2510 nM (inactive). Further, the Ki in assay [6] is > 5010 nM (inactive); in assay [7] it was 794 nM (active); in assay [8], > 3160 nM (inactive); in assay [9] it was > 6310 nM (inactive); in assay [10] it was > 3980 nM (inactive); in [11], > 3980 nM (inactive). The Ki in assay [12] was 1580 nM (active); in assay [13], 316 nM (active); in assay [14], 3160 nM (active); in [15], > 3160 nM (inactive); in assay [16] it was > 2510 nM (inactive); in [17], 316 nM (active). Besides, the Ki in assay [18] is > 2510 nM (inactive); in [19], 1260 nM (active); in assay [20], > 3980 nM (inactive); in assay [21], > 2510 nM (inactive); in [22] it was > 2510 nM (inactive); in assay [23], 398 nM (active). For the same compound, the Ki in [24] is 794 nM (active); in assay [25], 1260 nM (active); in [26], > 3980 nM (inactive); in assay [27] it was 3160 nM (active); in [28], > 2510 nM (inactive); in assay [29] it was > 2510 nM (inactive).
In the case of `Cc1ccc(C(=O)OCn2ncc(Cl)c(Cl)c2=O)cc1`, the AC50 (commonly the midpoint of the concentration-response curve, whichever way the signal moves) was 33200 nM (active) in [30], 4280 nM (active) in assay [31], 5510 nM (active) in the assay on INS1 and 5070 nM (active) in [33]. The EC50 (as a rule, the concentration needed to bring the measured effect to its halfway point) in [32] is > 38000 nM (not active).
With `Cc1ccc(-c2cc(-c3cc(Br)ccc3O)[nH]c(=O)c2C#N)s1`, the Ki on Activated CDC42 kinase 1 is 2510 nM (active); in assay [1] it was 1580 nM (active); in assay [2], > 3980 nM (inactive); in assay [3], 631 nM (active); in assay [4], > 3160 nM (inactive); in assay [5] it was 794 nM (active). The Ki in [6] was > 5010 nM (inactive); in assay [7], 1260 nM (active); in assay [8], > 3160 nM (inactive); in [9], 3160 nM (active); in assay [10], > 3980 nM (inactive); in assay [11], 794 nM (active). Further, the Ki in assay [12] was > 3160 nM (inactive); in assay [13], > 2510 nM (inactive); in assay [14], > 3160 nM (inactive); in assay [15] it was 631 nM (active); in [16] it was > 2510 nM (inactive); in assay [17], 1000 nM (active). In addition, the inhibitory constant (Ki) in [18] was 631 nM (active); in [19], > 2510 nM (inactive); in [20], 3160 nM (active); in [21], > 2510 nM (inactive); in assay [22], > 2510 nM (inactive); in [23] it was 316 nM (active). For the same compound, the Ki in assay [24] was 1000 nM (active); in assay [25] it was 251 nM (active); in [26], 1000 nM (active); in assay [27], 2000 nM (active); in [28] it was 794 nM (active); in assay [29], 398 nM (active).
On to `CCCC(=O)NC(c1cccs1)c1cc(Cl)c2cccnc2c1O` (configuration not stated), for which the concentration at half-maximal activity (AC50) in assay [30] is 3760 nM (active); in [31] it was 1470 nM (active); with INS1 it was 1420 nM (active); in assay [33], 3160 nM (active). The results for the EC50 in assay [32], in [34] and in assay [35] were 707 nM (active), > 150000 nM (inactive) and 2610 nM (active), respectively.
